“And” between values parts separate entries of the source, which are not always exact repeats. Equal entries are not always repeated.
What was measured:
Format in all cases: in vivo
[1] = test system: twospotted spider mite (Tetranychus urticae [Koch]); experiment: Foliar leaf-dip test against twospotted spider mite on pinto bean plants; conditions: technical, 96 h
Procedure: (§1) Candidate insecticide compositions were evaluated for activity in foliar evaluations against tobacco budworm (Heliothis virescens [Fabricius]), Colorado potato beetle (Leptinotarsa decemlineata [Say]), corn earworm (Helicoverpa zea [Boddie]), cotton aphid (Aphis gossypii [Glover]) and twospotted spider mite (Tetranychus urticae [Koch]). Each test included controls in which the formulation or test solution minus the active ingredients were applied.
In tests against twospotted spider mites, the leaves of potted 3 to 4 inch tall pinto bean plants (Phaseolus vulgaris) were infested with about 50 to 75 adult twospotted spider mites by placing leaf cuttings from a twospotted spider mite colony host pinto bean plant on the upper surface of the test plant leaves. After about 1 hour the newly infested pinto bean leaves were dipped into the test solutions of the test formulations to provide application rates as high as 1000 ppm of the active ingredients. The test formulations were dissolved in, and diluted as necessary, with distilled water containing 10% acetone and 0.25% of a non-ionic detergent [an octylphenolpoly(ethyleneglycolether)x, available from Roche Applied Science as Triton X-100] to the proper concentrations. The treated plants were transferred to a hood where they were kept until the leaves had dried. Once dry, the potted plants were placed into a tray containing at least one inch of water. The plants were spaced far enough apart to prevent the mites from moving between plants. The trays were held in a growth chamber for 96 hours at 25° C., 50% relative humidity and a photoperiod of 14 hours light/10 hours dark. For tests in which the active ingredients were not formulated, i.e. the technical active ingredient was used; a stock solution of the test compound was made. For example, a 100 ppm stock solution may be made by dissolving 4 milligrams of the test compound in 4 mL of acetone and adding the solution to 36 mL of an aqueous Triton X-100 solution (one drop of Triton X-100 dissolved in 100 mL of distilled water). Further dilutions can be made by adding distilled water containing 10% acetone and 0.25% of Triton X-100.
At the end of the 96 hour exposure period the numbers of dead and live insects were counted. […] Using the insect counts, the activity of the test chemical was expressed in percent control. Percent control is derived from the total number of dead insects (TD) compared to the total number of insects (TI) in the test: […]

[2] = test system: corn earworm (Helicoverpa zea [Boddie]); experiment: Cotton leaf-disc dip test against corn earworm; conditions: technical, 96 h
Procedure: as §1
In tests against corn earworm, one inch diameter leaf discs cut from cotton plant leaves (Gossypium hirsutum) were dipped into the test solutions of the test formulations to provide application rates as high as 1000 ppm of the active ingredients. The test formulations were dissolved in distilled water containing 10% acetone and 0.25% of a non-ionic detergent [an octylphenolpoly(ethyleneglycolether)x, available from Roche Applied Science as Triton X-100] to the proper concentrations. Cotton wicks, 0.5 inch diameter by 2 inches long, were soaked with distilled water and placed into the wells of a 32 well rearing tray (available as Rearing Tray Bio-Fit 32, from C-D International, Pittman, N.J.), one wick per well. Treated leaf discs were placed on top of the cotton wicks, one leaf disc per wick, and the rearing tray was transferred to a hood where they were kept until the leaf discs had dried. Each disc was infested with 1 late second to early third instar corn earworm, replicated sixteen times per rate of application, and a lid was placed on the rearing tray. The rearing trays were held in a growth chamber for 96 hours at 25° C., 50% relative humidity and a photoperiod of 12 hours light/12 hours dark. For tests in which the active ingredients were not formulated, i.e. the technical active ingredient was used; a stock solution of the test compound was made. For example, a 100 ppm stock solution may be made by dissolving 4 milligrams of the test compound in 4 mL of acetone and adding the solution to 36 mL of an aqueous Triton X-100 solution (one drop of Triton X-100 dissolved in 100 mL of distilled water). Further dilutions can be made by adding distilled water containing 10% acetone and 0.25% of Triton X-100.
At the end of the 96 hour exposure period, the rearing tray was opened, and the numbers of dead and live insects were counted. […] Using the insect counts, the activity of the test chemical was expressed in percent control. Percent control is derived from the total number of dead insects (TD) compared to the total number of insects (TI) in the test: […]

[3] = test system: Colorado potato beetle (Leptinotarsa decemlineata [Say]); experiment: Foliar leaf-dip test against adult Colorado potato beetle on tomato plants; conditions: technical, 72 h
Procedure: as §1
In tests against adult Colorado potato beetle, the leaves of 6-8 inch tall tomato plants (Lycopersicon lycoper) were dipped into the test solutions of the test formulations to provide application rates as high as 1000 ppm of the active ingredients. The test formulations were dissolved in distilled water containing 10% acetone and 0.25% of a non-ionic detergent [an octylphenolpoly(ethyleneglycolether)x, available from Roche Applied Science as Triton X-100] to the proper concentrations. The treated plants were transferred to a hood where they were kept until the leaves had dried. For tests in which the active ingredients were not formulated, i.e. the technical active ingredient was used; a stock solution of the test compound was made. For example, a 100 ppm stock solution may be made by dissolving 4 milligrams of the test compound in 4 mL of acetone and adding the solution to 36 mL of an aqueous Triton X-100 solution (one drop of Triton X-100 dissolved in 100 mL of distilled water). Further dilutions can be made by adding distilled water containing 10% acetone and 0.25% of Triton X-100.
The treated tomato plants were removed from their pots by cutting the stems just above the soil line. Each excised plant was placed into an individual 8-ounce paper cup. Ten adult Colorado potato beetles were placed into each paper cup, taking care not to cause injury. An opaque plastic lid was placed on each cup, for a 72 hour exposure period and held at 25° C., 50% relative humidity with a photo-period of 12 hours light and 12 hours dark. At the end of the 72 hour exposure period, the cups were opened, and the numbers of dead and live insects were counted. Using the insect counts, the activity of the test chemical was expressed in percent control. Percent control is derived from the total number of dead insects (TD) compared to the total number of insects (TI) in the test: […]

[4] = test system: cotton aphid (Aphis gossypii [Glover]); experiment: Foliar leaf-dip test against cotton aphid on tomato plants; conditions: technical, 72 h
Procedure: as §1
In tests against cotton aphid, the leaves of 6 to 8 inch tall tomato plants (Lycopersicon lycoper) were infested with about 50 cotton aphids by placing leaf cuttings from a cotton aphid colony host tomato plant. After about 12 hours the newly infested tomato leaves were dipped into the test solutions of the test formulations to provide application rates as high as 1000 ppm of the active ingredients. The test formulations were dissolved in, and diluted as necessary, with distilled water containing 10% acetone and 0.25% of a non-ionic detergent [an octylphenolpoly(ethyleneglycolether)x, available from Roche Applied Science as Triton X-1001 to the proper concentrations. After treatment, a square of parafilm was placed around the stem of each test plant, covering the soil of each pot in order to catch dead aphids that fall from the leaves. The treated plants were transferred to a hood where they were kept until the leaves had dried. Once dry, the potted plants were placed into a tray containing at least one inch of water. The plants were spaced far enough apart to prevent the aphids from moving between plants. The trays were held in a growth chamber for 72 hours at 25° C., 50% relative humidity and a photoperiod of 14 hours light/10 hours dark. For tests in which the active ingredients were not formulated, i.e. the technical active ingredient was used; a stock solution of the test compound was made. For example, a 100 ppm stock solution may be made by dissolving 4 milligrams of the test compound in 4 mL of acetone and adding the solution to 36 mL of an aqueous Triton X-100 solution (one drop of Triton X-100 dissolved in 100 mL of distilled water). Further dilutions can be made by adding distilled water containing 10% acetone and 0.25% of Triton X-100.
At the end of the 72 hour exposure period the numbers of dead and live insects were counted. Insects were classified as “dead” if they were off-color or brown and desiccated. Using the insect counts, the activity of the test chemical was expressed in percent control. Percent control is derived from the total number of dead insects (TD) compared to the total number of insects (TI) in the test: […]

[5] = cyano-pyrethroid 10.0 ppm alone (bifenthrin 0 ppm)
[6] = cyano-pyrethroid 30.0 ppm alone (bifenthrin 0 ppm)
[7] = cyano-pyrethroid 100.0 ppm alone (bifenthrin 0 ppm)
[8] = cyano-pyrethroid 200.0 ppm alone (bifenthrin 0 ppm)
[9] = cyano-pyrethroid 0.3 ppm alone (bifenthrin 0.0 ppm)
[10] = cyano-pyrethroid 1.0 ppm alone (bifenthrin 0.0 ppm)
[11] = cyano-pyrethroid 3.0 ppm alone (bifenthrin 0.0 ppm)
[12] = cyano-pyrethroid 10.0 ppm alone (bifenthrin 0.0 ppm)
[13] = cyano-pyrethroid 0.3 ppm alone (bifenthrin 0 ppm)
[14] = cyano-pyrethroid 1.0 ppm alone (bifenthrin 0 ppm)
[15] = cyano-pyrethroid 3.0 ppm alone (bifenthrin 0 ppm)
[16] = bifenthrin 1.0 ppm alone (cyano-pyrethroid 0 ppm)

CC1(C)C(C=C(Cl)Cl)C1C(=O)OC(C#N)c1cccc(Oc2ccccc2)c1 (racemic) [alpha-cypermethrin, (S)-α-cyano-3-phenoxybenzyl (1R)-cis-3-(2,2-dichlorovinyl)-2,2-dimethylcyclopropanecarboxylate and (R)-α-cyano-3-phenoxybenzyl (1S)-cis-3-(2,2-dichlorovinyl)-2,2-dimethylcyclopropanecarboxylate]
% Mortality Twospotted Spider Mite [1, 5]: 8% | % Mortality Twospotted Spider Mite [1, 6]: 8% | % Mortality Twospotted Spider Mite [1, 7]: 16% | % Mortality Twospotted Spider Mite [1, 8]: 32% | % Mortality Corn Earworm [2, 9]: 6% | % Mortality Corn Earworm [2, 10]: 63% | % Mortality Corn Earworm [2, 11]: 100% | % Mortality Corn Earworm [2, 12]: 100% | % Mortality Adult Colorado Potato Beetle [3, 13]: 30% | % Mortality Adult Colorado Potato Beetle [3, 14]: 70% | % Mortality Adult Colorado Potato Beetle [3, 15]: 100% | % Mortality Adult Colorado Potato Beetle [3, 5]: 100% | % Mortality Cotton Aphid [4, 6]: 7% | % Mortality Cotton Aphid [4, 7]: 3% | % Mortality Cotton Aphid [4, 8]: 7%

Cc1c(COC(=O)[C@@H]2[C@H](/C=C(\Cl)C(F)(F)F)C2(C)C)cccc1-c1ccccc1 (racemic) [bifenthrin, 2-methylbiphenyl-3-ylmethyl (Z)-(1RS)-cis-3-(2-chloro-3,3,3-trifluoroprop-1-enyl)-2,2-dimethyl cyclopropanecarboxylate]
mortality at 60 ppm ([1]; Tetranychus urticae, foliar, bifenthrin 60.0 ppm alone (cyano-pyrethroid 0 ppm)): 68% | % Mortality Twospotted Spider Mite ([1]; bifenthrin 30.0 ppm alone (cyano-pyrethroid 0 ppm)): 66% and 100% and 69% | % Mortality Twospotted Spider Mite ([1]; bifenthrin 100.0 ppm alone (cyano-pyrethroid 0 ppm)): 75% and 90% and 100% | mortality at 0.1 ppm ([2]; Helicoverpa zea, bifenthrin 0.1 ppm alone (cyano-pyrethroid 0 ppm)): 6% | mortality at 0.3 ppm ([2]; Helicoverpa zea, bifenthrin 0.3 ppm alone (cyano-pyrethroid 0 ppm)): 13% | % Mortality Corn Earworm ([2]; bifenthrin 0.3 ppm alone (cyano-pyrethroid 0 ppm)): 25% | % Mortality Corn Earworm [2, 16]: 100% and 75% and 63% | mortality at 0.3 ppm ([3]; Leptinotarsa decemlineata, foliar, bifenthrin 0.3 ppm alone (cyano-pyrethroid 0 ppm)): 0% | % Mortality Adult Colorado Potato Beetle [3, 16]: 10% | mortality at 200 ppm ([4]; Aphis gossypii, foliar, bifenthrin 200.0 ppm alone (cyano-pyrethroid 0 ppm)): 100%

CC1(C)C(C=C(Cl)Cl)C1C(=O)OC(C#N)c1ccc(F)c(Oc2ccccc2)c1 (racemic) [cyfluthrin, (RS)-α-cyano-4-fluoro-3-phenoxybenzyl (1RS)-cis-trans-3-(2,2-dichlorovinyl)-2,2-dimethylcyclopropanecarboxylate]
% Mortality Twospotted Spider Mite [1, 5]: 14% | % Mortality Twospotted Spider Mite [1, 6]: 17% | % Mortality Twospotted Spider Mite ([1]; cyano-pyrethroid 60.0 ppm alone (bifenthrin 0 ppm)): 23% | % Mortality Twospotted Spider Mite [1, 7]: 11% | % Mortality Corn Earworm [2, 9]: 13% | % Mortality Corn Earworm [2, 10]: 69% | % Mortality Corn Earworm [2, 11]: 100% | % Mortality Corn Earworm [2, 12]: 100% | % Mortality Adult Colorado Potato Beetle [3, 13]: 10% | % Mortality Adult Colorado Potato Beetle [3, 14]: 70% | % Mortality Adult Colorado Potato Beetle [3, 15]: 80% | % Mortality Adult Colorado Potato Beetle [3, 5]: 100% | % Mortality Cotton Aphid [4, 5]: 4% | % Mortality Cotton Aphid [4, 6]: 6% | % Mortality Cotton Aphid [4, 7]: 9%

Reference: patent publication US9596857B2, “Insecticidal and miticidal mixtures of bifenthrin and cyano-pyrethroids” (FMC Corporation, priority 2005, dated 2017)
